From PubChem BioAssay (NCI)
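In this assay, cells in 96-well plates receive the compound at five concentrations for 48 hours. Endpoints are linearly interpolated between the surrounding concentrations. Abbreviation: GI50, concentration required for 50% inhibition of growth. TGI denotes the concentration required for complete inhibition of growth.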

What was measured:
Assay in all cases: NCI-60 cell line screen, 48 h
SR leukemia = test system: SR leukemia
MOLT-4 leukemia = test system: MOLT-4 leukemia
OVCAR-3 ovarian = test system: OVCAR-3 ovarian
KM12 colon = test system: KM12 colon
NCI-H23 lung = test system: NCI-H23 lung
HCT-116 colon = test system: HCT-116 colon
ACHN renal = test system: ACHN renal
BT-549 breast = test system: BT-549 breast
NCI/ADR-RES ovarian = test system: NCI/ADR-RES ovarian
DU-145 prostate = test system: DU-145 prostate

| Structure (SMILES) | TGI (SR leukemia) [µM] | TGI (MOLT-4 leukemia) [µM] | TGI (OVCAR-3 ovarian) [µM] | TGI (KM12 colon) [µM] | TGI (NCI-H23 lung) [µM] | TGI (HCT-116 colon) [µM] | TGI (ACHN renal) [µM] | GI50 (BT-549 breast) [µM] | TGI (BT-549 breast) [µM] | GI50 (MOLT-4 leukemia) [µM] | GI50 (NCI/ADR-RES ovarian) [µM] | TGI (NCI/ADR-RES ovarian) [µM] | GI50 (DU-145 prostate) [µM] | TGI (DU-145 prostate) [µM] | GI50 (NCI-H23 lung) [µM] | GI50 (HCT-116 colon) [µM] | GI50 (ACHN renal) [µM] | GI50 (SR leukemia) [µM] | GI50 (KM12 colon) [µM] | GI50 (OVCAR-3 ovarian) [µM] |
| --- | --- | --- | --- | --- | --- | --- | --- | --- | --- | --- | --- | --- | --- | --- | --- | --- | --- | --- | --- | --- |
| Oc1ccc2ccccc2c1N=Nc1ccsc1 | > 100 | > 100 | > 100 | > 100 | > 100 | > 100 | > 100 |  |  |  |  |  |  |  |  |  |  |  |  |  |
| C[C@]12CC/C(=N\O)C=C1CC[C@@H]1C2CC[C@@]2(C)C1CC[C@@H]2OC1CCCCO1 (some centres not stated) |  | 29.9 | 31.9 | 33.2 | 31.2 | 43.8 | 30.3 |  |  |  |  |  |  |  |  |  |  |  |  |  |
| CO/N=C(\C)c1ccc(Nc2cc(-c3ccccc3)nc3ccc(OC)cc23)cc1 |  | 25.2 |  |  | 10.3 | 3.77 | 12.5 | 5.61 | 21.4 | 3.38 | 2.61 | 11.2 | 5.36 | 21.3 | 2.52 | 1.76 | 3.27 |  |  |  |
| C/C(=N\NS(=O)(=O)c1ccc(C)cc1)P(=O)(O)O |  |  | > 100 | > 100 | > 100 | > 100 | > 100 |  | > 100 |  |  | > 100 |  | > 100 |  |  |  |  |  |  |
| Cn1cnc([N+](=O)[O-])c1Sc1nccn1-c1cccc2ccccc12 | 50.5 | 43.7 | 75.2 | > 100 | 50.6 | 60.3 | 94.2 |  |  |  |  |  |  |  |  |  |  |  |  |  |
| Cc1ccc(S(=O)(=O)NC2(C=O)CCCC3CCCCC32)cc1 (configuration not stated) | > 100 | > 100 | > 100 | > 100 |  | > 100 | > 100 |  |  |  |  |  |  |  |  |  |  |  |  |  |
| CC(=O)C1C(c2ccc(N(C)C)cc2)c2cc3c(cc2OC1(C)O)OCO3 (configuration not stated) |  | > 100 | > 100 |  | > 100 | > 100 | > 100 |  |  |  |  |  |  |  |  |  |  |  |  |  |
| O=C(Nc1ccc(Cl)c(Cl)c1)Nc1c(Oc2ccc(Cl)c(Cl)c2)ccc(Cl)c1S(=O)(=O)O | > 100 | > 100 |  | > 100 | > 100 | > 100 |  | 1.71 | > 100 | 4.1 | 0.959 | > 100 | 3.22 | > 100 | 2.52 | 1.32 |  | 0.504 | 0.927 |  |
| O=C(Nc1ccncc1)C(=O)c1cn(S(=O)(=O)c2ccc(Cl)cc2)c2ccccc12 |  | > 100 | 9.44 | > 100 | 33.1 | > 48.9 | > 59.6 | 3.75 | > 80.5 | 3.63 | 0.369 | > 100 | 3.43 | > 49.7 | 0.425 | 0.415 | 3.49 |  | 0.567 | 0.538 |
| COc1cc(N(C)C)c(OC)cc1/C=C\c1ccnc2ccccc12 |  | 8.06 | > 10 | > 10 | > 10 | > 10 | > 10 |  | > 10 |  |  | 7.66 |  | > 10 |  |  |  |  |  |  |
| COC(=O)c1cc(O)c2cc3c(cc2c1-c1cc(OC)c(OC)c(OC)c1)OCO3 |  |  | 1.15 | > 100 | > 100 | > 100 | > 100 | 7.87 | > 100 |  | 0.462 | > 100 | 2.16 | > 100 | 3.77 | 0.604 | 2.59 |  | 0.503 | 0.325 |
| CN1C(=O)C2C3C=C4c5ccccc5N(c5ccccc5)C4(C2C1=O)[C@H]1C(=O)N(C)C(=O)[C@@H]31 (some centres not stated) | > 100 | > 100 | > 100 | > 100 | > 100 | > 100 | > 100 |  |  |  |  |  |  |  |  |  |  |  |  |  |
| O=c1c(Br)cc2nc3ccccc3sc-2c1Br | > 100 | > 65.8 | 32.5 | > 100 | > 100 | > 100 | > 100 |  |  |  |  |  |  |  |  |  |  |  |  |  |
| CC(=O)OC[C@@H](COC(=O)/C=C/c1ccc(O)cc1)OC1OC(CO)C(O)C(O)C1O (some centres not stated) | > 100 | > 100 | > 100 | > 100 | > 100 | > 100 | > 100 |  |  |  |  |  |  | > 100 |  |  |  |  |  |  |
| C=CC(=O)Nc1cc(C)ccc1Nc1nc(Nc2cc(OC)ncc2C)ncc1C(F)(F)F |  | > 100 | > 100 | > 58.1 | > 22.9 | 1.31 | 2.07 | 0.585 | 6.07 | 3.55 | 1.69 | > 26.5 | 0.996 | 12.3 | 0.635 | 0.256 | 0.397 |  | 1.13 | 1.4 |
| CCOC(=O)N1CCC(=O)C(CNC23CC4CC(CC(C4)C2)C3)C1 (configuration not stated) | 51.6 | 38.9 |  | > 100 | > 100 |  | 34.8 |  |  |  |  |  |  |  |  |  |  |  |  |  |
| CC12CCC3(OCCO3)C(OC(=O)c3ccccc3)=C1CCC21OCCO1 (configuration not stated) | > 100 | > 100 | > 100 | > 100 |  | > 100 | > 100 |  |  |  |  |  |  |  |  |  |  |  |  |  |
| CCC(=C/[C@H](C)C/C=C/C(C)=C/[C@@H](C)C(=O)[C@@H](C)[C@H](O)[C@@H](C)CC)/C=C/[C@@H]1OC(=O)C=C[C@H]1C | 0.115 |  | < 0.01 | 0.126 | 4.03 | < 0.01 | 1.11 | < 0.01 | 1.75 |  | < 0.01 | 2.17 | < 0.01 | 4.42 | < 0.01 | < 0.01 | < 0.01 | < 0.01 | < 0.01 | < 0.01 |
| O=C(O)CCC(N=Cc1nc(-c2ccccc2)oc1O)C(=O)O (configuration not stated) | > 100 | > 100 | > 100 | > 100 | > 100 | > 100 | > 100 |  |  |  |  |  |  |  |  |  |  |  |  |  |
| O=C(c1ccccc1)C1OC1c1ccc([N+](=O)[O-])cc1 (configuration not stated) |  |  | 17.8 | 17.7 | 14.1 | 12.6 | > 100 | 5.47 | 44.3 |  | 2.58 | 9.36 |  |  | 2.84 | 3.17 | 6.08 |  | 3.83 | 3.84 |
